Patent US20120040951A1, “HETEROARYL COMPOUNDS USEFUL AS RAF KINASE INHIBITORS” (priority 2008, published 2012)
Where two headings read alike, the source gives them in different places.

What was measured:
[1] = tested on: phospho-ERK in melanoma derived WM-266-4 cells; assay: Mechanistic cellular assay for Raf kinase activity (phospho-ERK, Bio-Plex); assay type: cell-based; settings: treated 1-2 hr at 37° C., serum free medium, read-out: pERK EC50
Method in brief: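 WM-266-4 melanoma cells (wild-type/V600D BRaf) grown overnight in 10% FBS RPMI, then treated 1–2 h at 37 °C in serum-free RPMI with eight 3-fold dilutions of compound (from 5 mM DMSO stock, 1000× dilution). Lysate phospho-ERK1,2 quantified by Bio-Plex bead immunoassay.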

V599E Raf = V599E Raf (Homo sapiens, UniProt P15056, V600E); assay: Biochemical FRET assay, mutant Raf (phosphorylation of MEK); settings: 0.125 nM V599E Raf, 100 nM biotin-MEK, 25 μM ATP, read-out: Raf (mut) inhibition
V599E Raf, sequence (P15056 whole entry V600E): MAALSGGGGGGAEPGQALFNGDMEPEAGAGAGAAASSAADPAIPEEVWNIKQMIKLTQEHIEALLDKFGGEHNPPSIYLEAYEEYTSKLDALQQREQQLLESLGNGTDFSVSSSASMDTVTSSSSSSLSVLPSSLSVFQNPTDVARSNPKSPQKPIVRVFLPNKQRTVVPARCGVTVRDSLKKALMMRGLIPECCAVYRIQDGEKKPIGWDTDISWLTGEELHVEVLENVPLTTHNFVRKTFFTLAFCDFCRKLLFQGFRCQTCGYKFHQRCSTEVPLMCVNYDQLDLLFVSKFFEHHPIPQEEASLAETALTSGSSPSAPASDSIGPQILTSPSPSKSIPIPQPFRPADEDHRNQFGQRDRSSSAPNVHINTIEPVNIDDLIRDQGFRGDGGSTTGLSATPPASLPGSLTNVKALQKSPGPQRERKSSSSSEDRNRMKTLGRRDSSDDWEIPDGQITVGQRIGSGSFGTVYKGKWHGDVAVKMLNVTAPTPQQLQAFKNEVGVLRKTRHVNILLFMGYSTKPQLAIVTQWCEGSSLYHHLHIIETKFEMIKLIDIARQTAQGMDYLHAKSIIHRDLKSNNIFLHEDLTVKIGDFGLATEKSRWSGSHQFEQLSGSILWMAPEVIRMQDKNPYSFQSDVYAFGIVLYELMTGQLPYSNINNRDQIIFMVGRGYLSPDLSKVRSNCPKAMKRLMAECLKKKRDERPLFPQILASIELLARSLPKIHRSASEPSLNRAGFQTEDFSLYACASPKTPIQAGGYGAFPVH
Method in brief: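 V599E Raf (0.125 nM) preincubated 20 min with inhibitor and 100 nM biotin-MEK in HEPES pH 7.4 with Mg2+/Mn2+, then reacted with 25 μM ATP for 60 min at room temperature. EDTA-stopped; phospho-MEK1/2 (Ser217/221) detected by Eu/APC TR-FRET after 90 min.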

| Structure (SMILES) | EC50 ([1]; Homo sapiens) | IC50 (V599E Raf) | EC50 [1] |
| --- | --- | --- | --- |
| CC(NC(=O)c1cc2c(cn1)ncn2C1CCC1)c1cnc(Nc2ccc(C(F)(F)F)cc2)cn1 (stereo not drawn) [Example 175] | ≤ 0.1 µM | ≤ 0.1 µM | – |
| C[C@@H](NC(=O)c1cc2c(cn1)ncn2C1CCC1)c1cnc(Nc2ccc(C(F)(F)F)cc2)s1 [Example 176] | ≤ 0.1 µM | ≤ 0.1 µM | – |
| CC(NC(=O)c1cnc2n1CCCN2)c1cnc(Nc2ccc(C(F)(F)F)cc2)s1 (stereo not drawn) [Example 177] | 0.1 to 1 µM | ≤ 0.1 µM | – |
| CC(NC(=O)c1cc2c(cn1)ncn2C1CNC1)c1cnc(Nc2ccc(C(F)(F)F)cc2)cn1 (stereo not drawn) [Example 179] | 0.1 to 1 µM | ≤ 0.1 µM | – |
| CC(NC(=O)c1cc2c(cn1)ncn2C1CN(C(C)C)C1)c1cnc(Nc2ccc(C(F)(F)F)cc2)cn1 (stereo not drawn) [Example 181] | 0.1 to 1 µM | ≤ 0.1 µM | – |
| C[C@@H](NC(=O)c1cc2c(cn1)ncn2C1CN(C)C1)c1cnc(Nc2ccc(C(F)(F)F)cc2)s1 [Example 182] | 0.1 to 1 µM | ≤ 0.1 µM | – |
| CC(C)N1CC(n2cnc3cnc(C(=O)N[C@H](C)c4cnc(Nc5ccc(C(F)(F)F)cc5)s4)cc32)C1 [Example 183] | ≤ 0.1 µM | ≤ 0.1 µM | – |
| C[C@@H](NC(=O)c1cc2c(cn1)ncn2CCS(C)(=O)=O)c1cnc(Nc2ccc(C(F)(F)F)cc2)s1 [Example 185] | 0.1 to 1 µM | ≤ 0.1 µM | – |
| C[C@H](NC(=O)c1cc2c(cn1)ncn2C1CCC1)c1cnc(Nc2ccc(C(F)(F)F)cc2)cn1 [Example 187] | 1 to 10 µM | 0.1 to 1 µM | – |
| O=C(NCc1cnc(Nc2ccc(C(F)(F)F)cc2)s1)c1ccc2ncccc2c1 [Example 189] | 1 to 10 µM | ≤ 0.1 µM | – |
| CC(NC(=O)c1ncc2ncn(C)c2n1)c1cnc(Nc2ccc(C(F)(F)F)cc2)s1 (stereo not drawn) [Example 190] | 0.1 to 1 µM | ≤ 0.1 µM | – |
| CCn1cnc2cnc(C(=O)NC(C)c3cnc(Nc4ccc(C(F)(F)F)cc4)s3)nc21 (stereo not drawn) [Example 198] | 0.1 to 1 µM | ≤ 0.1 µM | – |
| CC(NC(=O)c1cc2c(cn1)nc(N)n2C)c1cnc(Nc2ccc(C(F)(F)F)cc2)s1 (stereo not drawn) [Example 199] | ≤ 0.1 µM | ≤ 0.1 µM | – |
| CC(NC(=O)c1cc2c(cn1)nc(N)n2C)c1cnc(Nc2ccc(C(F)(F)F)cc2)cn1 (stereo not drawn) [Example 201] | ≤ 0.1 µM | ≤ 0.1 µM | – |
| CC(NC(=O)c1cc2cn(C)nc2cn1)c1cnc(Nc2ccc(C(F)(F)F)cc2)s1 (stereo not drawn) [Example 203] | ≤ 0.1 µM | ≤ 0.1 µM | – |
| CCn1cc2cc(C(=O)NC(C)c3cnc(Nc4ccc(C(F)(F)F)cc4)s3)ncc2n1 (stereo not drawn) [Example 207] | 0.1 to 1 µM | ≤ 0.1 µM | – |
| C[C@@H](NC(=O)c1cnn2ccccc12)c1cc(C(=O)Nc2ccc(Br)c(C(F)(F)F)c2)on1 [Example 209] | ≤ 0.1 µM | 0.1 to 1 µM | – |
| C[C@@H](NC(=O)c1cnn2ccccc12)c1cc(C(=O)Nc2nc3ccccc3[nH]2)on1 [Example 211] | 1 to 10 µM | ≤ 0.1 µM | – |
| C[C@@H](NC(=O)c1cnn2ccccc12)c1cc(C(=O)Nc2nc3cc(Cl)ccc3o2)on1 [Example 212] | 1 to 10 µM | ≤ 0.1 µM | – |
| COc1ccc(C(F)(F)F)cc1NC(=O)c1cc([C@@H](C)NC(=O)c2cnn3ccccc23)no1 [Example 214] | 0.1 to 1 µM | 0.1 to 1 µM | – |
| C[C@@H](NC(=O)c1cnn2ccccc12)c1cc(C(=O)Nc2cccc(OC(F)(F)F)c2)on1 [Example 217] | 0.1 to 1 µM | ≤ 0.1 µM | – |
| Cc1ccc(NC(=O)c2cc([C@@H](C)NC(=O)c3cnn4ccccc34)no2)cc1C(F)(F)F [Example 218] | ≤ 0.1 µM | ≤ 0.1 µM | – |
| Cc1cc2nc(NC(=O)c3cc([C@@H](C)NC(=O)c4cnn5ccccc45)no3)[nH]c2cc1C [Example 219] | 0.1 to 1 µM | 0.1 to 1 µM | – |
| C[C@@H](NC(=O)c1cnn2ccccc12)c1cc(C(=O)Nc2ccc(Cl)c(C(F)(F)F)c2)on1 [Example 220] | 0.1 to 1 µM | ≤ 0.1 µM | – |
| Cc1ccc(NC(=O)c2cc([C@@H](C)NC(=O)c3cnn4cccnc34)no2)cc1C(F)(F)F [Example 221] | 0.1 to 1 µM | 0.1 to 1 µM | – |
| CC(NC(=O)c1cnn2ccccc12)c1ncc(C(=O)Nc2ccc(Cl)c(C(F)(F)F)c2)s1 (stereo not drawn) [Example 222] | ≤ 0.1 µM | 0.1 to 1 µM | – |

| Structure (SMILES) | EC50 ([1]; Homo sapiens) | IC50 (V599E Raf) | EC50 [1] |
| --- | --- | --- | --- |
| CC(NC(=O)c1cnn2ccccc12)c1ncc(C(=O)Nc2cc(C(F)(F)F)c(Cl)cn2)s1 (stereo not drawn) [Example 223] | ≤ 0.1 µM | 0.1 to 1 µM | – |
| CC(NC(=O)c1cnn2ccccc12)c1cnc(Nc2ccc(C(F)(F)F)cc2)s1 (stereo not drawn) [Example 224] | 0.1 to 1 µM | ≤ 0.1 µM | – |
| CC(NC(=O)c1cnn2cccnc12)c1cnc(Nc2ccc(C(F)(F)F)cc2)s1 (stereo not drawn) [Example 225] | 1 to 10 µM | ≤ 0.1 µM | – |
| Cc1ccc(NC(=O)c2cc([C@H](C)NC(=O)c3cnn4ccccc34)on2)cc1C(F)(F)F [Example 227] | 0.1 to 1 µM | ≤ 0.1 µM | – |
| O=C(Nc1ccc(Cl)c(C(F)(F)F)c1)c1ccc(CNC(=O)c2cnn3ccccc23)cc1 [Example 231] | 1 to 10 µM | 0.1 to 1 µM | – |
| CCn1cnc2cnc(C(=O)NC(C)c3cnc(Nc4ccc(Cl)c(C(F)(F)F)c4)cn3)cc21 (stereo not drawn) [Example 233] | 0.1 to 1 µM | ≤ 0.1 µM | – |
| CC(NC(=O)c1cc2c(cn1)ncn2C1CCC1)c1cnc(Nc2ccc(Cl)c(C(F)(F)F)c2)cn1 (stereo not drawn) [Example 234] | 0.1 to 1 µM | ≤ 0.1 µM | – |
| C[C@@H](NC(=O)c1cc2c(cn1)ncn2C)c1cnc(Nc2cnc(C(C)(C)C)nc2)s1 [Example 241] | ≤ 0.1 µM | ≤ 0.1 µM | – |
| CC(NC(=O)c1cc2c(cn1)ncn2C)c1cnc(Nc2cccc(S(=O)(=O)C(F)(F)F)c2)cn1 (stereo not drawn) [Example 243] | ≤ 0.1 µM | ≤ 0.1 µM | – |
| COc1cc(C(F)(F)F)ccc1Nc1ncc(C(C)NC(=O)c2cc3c(cn2)ncn3C)s1 (stereo not drawn) [Example 244] | ≤ 0.1 µM | ≤ 0.1 µM | – |
| CC(NC(=O)c1cc2c(cn1)ncn2C)c1cnc(Nc2ccc(C(F)(F)F)cc2Cl)s1 (stereo not drawn) [Example 245] | ≤ 0.1 µM | ≤ 0.1 µM | – |
| CC(NC(=O)c1cc2c(cn1)ncn2C)c1cnc(Nc2cnc(C(F)(F)F)nc2)s1 (stereo not drawn) [Example 261] | 0.1 to 1 µM | ≤ 0.1 µM | – |
| CC(NC(=O)c1cc2c(cn1)ncn2C)c1cnc(Nc2ccc(C(F)(F)F)cn2)cn1 (stereo not drawn) [Example 262] | 0.1 to 1 µM | ≤ 0.1 µM | – |
| CC(NC(=O)c1cc2c(cn1)ncn2C)c1cnc(Nc2ccc(C(F)(F)F)nc2Cl)s1 (stereo not drawn) [Example 263] | 0.1 to 1 µM | ≤ 0.1 µM | – |
| CC(NC(=O)c1cc2c(cn1)ncn2C)c1cnc(Nc2ccc(C(F)(F)F)cn2)cn1 (stereo not drawn) [Example 264] | – | ≤ 0.1 µM | 0.1 to 1 µM |
| CC(NC(=O)c1cc2c(cn1)ncn2C)c1cnc(Nc2ccc(C(F)(F)F)cc2Cl)cn1 (stereo not drawn) [Example 265a] | 0.1 to 1 µM | ≤ 0.1 µM | – |
| COc1cc(C(F)(F)F)ccc1Nc1cnc(C(C)NC(=O)c2cc3c(cn2)ncn3C)cn1 (stereo not drawn) [Example 265b] | 0.1 to 1 µM | ≤ 0.1 µM | – |
| CC(NC(=O)c1cc2c(cn1)ncn2C)c1cnc(Nc2ccc(F)c(S(=O)(=O)C(F)(F)F)c2)cn1 (stereo not drawn) [Example 268] | ≤ 0.1 µM | ≤ 0.1 µM | – |
| COc1nc(C(C)(C)C)ncc1Nc1ncc(C(C)NC(=O)c2cc3c(cn2)ncn3C)s1 (stereo not drawn) [Example 270] | ≤ 0.1 µM | ≤ 0.1 µM | – |
| CC(NC(=O)c1cc2c(cn1)ncn2C)c1cnc(Nc2cccc(C(C)(C)C(F)(F)F)c2)cn1 (stereo not drawn) [Example 273] | ≤ 0.1 µM | ≤ 0.1 µM | – |
| CC(NC(=O)c1cc2c(cn1)ncn2C)c1cnc(Nc2cc(S(=O)(=O)C(F)(F)F)ccc2Cl)cn1 (stereo not drawn) [Example 276] | ≤ 0.1 µM | ≤ 0.1 µM | – |
| CC(NC(=O)c1cc2c(cn1)ncn2C)c1cnc(Nc2cc(C(C)(C)C)ccc2F)s1 (stereo not drawn) [Example 279] | ≤ 0.1 µM | ≤ 0.1 µM | – |
| CNc1nc(C(C)(C)C)ncc1Nc1ncc(C(C)NC(=O)c2cc3c(cn2)ncn3C)s1 (stereo not drawn) [Example 280] | 0.1 to 1 µM | ≤ 0.1 µM | – |
| COCCOc1cc(C(F)(F)F)ccc1Nc1ncc(C(C)NC(=O)c2cc3c(cn2)ncn3C)s1 (stereo not drawn) [Example 282] | 0.1 to 1 µM | ≤ 0.1 µM | – |
| CCOc1cc(C(F)(F)F)ccc1Nc1ncc(C(C)NC(=O)c2cc3c(cn2)ncn3C)s1 (stereo not drawn) [Example 283] | 0.1 to 1 µM | ≤ 0.1 µM | – |
